Data: US7947732B2, “Therapeutic substituted chlorocyclopentanols” (Allergan, Inc., priority 2007, dated 2011)
pEC50, pKi: −log10 of the molar value. Counter-ions that a name gives are not always drawn. Like-named read-outs stand apart in the source and are kept apart here. Blank lines part the entries; values can stand above or below the compound they belong to.

Legend:
hDP = molecular target: T1, hDP (Homo sapiens, UniProt Q13258); assay: Other receptors functional EC50: hDP; format: cell-based
T1 sequence (Q13258 1-359): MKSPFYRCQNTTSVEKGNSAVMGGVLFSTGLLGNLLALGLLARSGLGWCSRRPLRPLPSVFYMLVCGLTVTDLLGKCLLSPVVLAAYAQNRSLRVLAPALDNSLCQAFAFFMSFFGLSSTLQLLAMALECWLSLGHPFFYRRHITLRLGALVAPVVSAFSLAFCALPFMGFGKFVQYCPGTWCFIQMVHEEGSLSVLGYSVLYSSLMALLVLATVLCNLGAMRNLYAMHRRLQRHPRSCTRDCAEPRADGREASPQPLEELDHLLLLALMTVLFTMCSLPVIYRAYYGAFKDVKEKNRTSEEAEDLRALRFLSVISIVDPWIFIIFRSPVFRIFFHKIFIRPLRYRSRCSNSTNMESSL
From the text: (§1) U.S. patent application Ser. No. 11/553,143, filed on Oct. 26, 2006, now issued as U.S. Pat. No. 7,427,685 incorporated by reference herein, describes the methods used to obtain the in vitro data in the tables below.

hTP = molecular target: T2, hTP (Homo sapiens, UniProt P21731); assay: Other receptors functional EC50: hTP; format: cell-based
T2 sequence (P21731 1-343): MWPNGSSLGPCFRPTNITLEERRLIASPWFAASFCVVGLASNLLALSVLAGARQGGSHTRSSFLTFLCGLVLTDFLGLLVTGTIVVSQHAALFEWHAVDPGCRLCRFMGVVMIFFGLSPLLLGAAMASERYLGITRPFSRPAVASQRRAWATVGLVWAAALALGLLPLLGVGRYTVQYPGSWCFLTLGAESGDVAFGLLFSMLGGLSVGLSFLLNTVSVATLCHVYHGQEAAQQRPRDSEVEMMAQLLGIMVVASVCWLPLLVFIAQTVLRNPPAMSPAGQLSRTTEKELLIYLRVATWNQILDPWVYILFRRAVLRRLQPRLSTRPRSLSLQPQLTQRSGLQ
From the text: as §1

normotensive dogs [1] = assay: Ocular surface hyperemia in normotensive dogs; format: in vivo; parameters: scale not given here
From the text: (§2) U.S. Pat. No. 7,091,231 describes the methods used for these in vivo tests.

normotensive dogs [2] = assay: Intraocular pressure in normotensive dogs; format: in vivo; settings: once daily for 5 days
From the text: as §2

EP4 [3] = molecular target: T3, EP4 (Homo sapiens, UniProt P35408); assay: EP4 binding (KI)
T3 sequence (P35408 whole entry): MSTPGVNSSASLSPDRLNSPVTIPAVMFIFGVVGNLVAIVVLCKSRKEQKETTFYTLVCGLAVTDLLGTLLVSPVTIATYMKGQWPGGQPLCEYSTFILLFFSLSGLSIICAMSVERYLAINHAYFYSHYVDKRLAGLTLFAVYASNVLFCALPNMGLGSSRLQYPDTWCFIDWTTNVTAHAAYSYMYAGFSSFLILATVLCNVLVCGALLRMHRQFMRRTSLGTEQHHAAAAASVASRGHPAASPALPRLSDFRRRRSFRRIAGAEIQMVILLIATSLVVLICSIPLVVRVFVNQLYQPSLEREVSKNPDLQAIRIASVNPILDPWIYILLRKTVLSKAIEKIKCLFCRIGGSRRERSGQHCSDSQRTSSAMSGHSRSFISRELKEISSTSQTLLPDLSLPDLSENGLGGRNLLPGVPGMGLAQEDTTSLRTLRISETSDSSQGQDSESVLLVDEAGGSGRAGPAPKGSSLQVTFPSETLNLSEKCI
From the text: as §1

EP2 [4] = molecular target: T4, EP2 (Homo sapiens, UniProt P43116); assay: EP2 flipr functional assay; format: cell-based
T4 sequence (P43116 whole entry): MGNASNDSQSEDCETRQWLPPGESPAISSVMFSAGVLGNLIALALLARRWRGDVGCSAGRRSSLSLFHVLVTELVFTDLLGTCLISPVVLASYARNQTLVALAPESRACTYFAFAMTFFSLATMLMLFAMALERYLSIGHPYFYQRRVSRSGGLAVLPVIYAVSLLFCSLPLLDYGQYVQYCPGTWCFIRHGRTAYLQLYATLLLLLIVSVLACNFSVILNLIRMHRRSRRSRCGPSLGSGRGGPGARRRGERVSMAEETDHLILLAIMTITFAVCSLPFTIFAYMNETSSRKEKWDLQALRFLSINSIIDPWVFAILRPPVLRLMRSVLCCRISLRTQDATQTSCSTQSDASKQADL
From the text: as §1

hEP3A = molecular target: T5, hEP3A (Homo sapiens, UniProt P43115); assay: Other receptors functional EC50: hEP3A; format: cell-based
T5 sequence (P43115 1-390): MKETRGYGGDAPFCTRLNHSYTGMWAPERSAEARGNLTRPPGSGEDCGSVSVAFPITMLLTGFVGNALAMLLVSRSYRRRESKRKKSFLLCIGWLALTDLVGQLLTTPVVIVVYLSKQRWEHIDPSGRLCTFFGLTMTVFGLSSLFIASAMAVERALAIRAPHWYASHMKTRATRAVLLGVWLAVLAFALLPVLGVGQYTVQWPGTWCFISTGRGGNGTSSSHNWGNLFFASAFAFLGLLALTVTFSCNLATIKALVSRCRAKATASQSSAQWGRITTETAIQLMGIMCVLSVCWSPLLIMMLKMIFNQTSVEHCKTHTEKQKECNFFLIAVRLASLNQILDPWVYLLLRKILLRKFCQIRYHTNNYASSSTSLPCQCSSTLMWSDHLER
From the text: as §1

EP2 [5] = molecular target: T4, EP2; assay: EP2 cAMP assay; format: cell-based
From the text: as §1

EP4 [6] = molecular target: T3, EP4; assay: EP4 flipr functional assay; format: cell-based; settings: read-out: EP4 data filpr EC50
From the text: as §1

EP2 [7] = molecular target: T4, EP2; assay: EP2 binding (KI)
From the text: as §1

[8] = 0.001%, once daily for 5 days, at 50 h

pEC50 (hDP): 5.01
pEC50 (hTP): 5.27
SMILES: O=C(O)c1ccc(CCC[C@@H]2[C@@H](CSc3cc(F)cc(F)c3)[C@H](O)C[C@H]2Cl)s1

maximum ocular surface hyperemia (OSH) score (normotensive dogs [1]; 0.01%, once daily for 5 days, at 74 h): 0.8
SMILES: O=C(O)CCCCCC[C@@H]1[C@@H](CCc2cc(Cl)cc(Cl)c2)[C@H](O)C[C@H]1Cl [7-{(1R,2R,3R,5R)-5-Chloro-2-[2-(3,5-dichloro-phenyl)-ethyl]-3-hydroxy-cyclopentyl}-heptanoic acid]

maximum ocular surface hyperemia (OSH) score (normotensive dogs [1]; 0.001%, once daily for 5 days, at 76 h): 1.5
SMILES: O=C(O)c1ccc(CCC[C@@H]2[C@@H](CNc3cc(Cl)cc(Cl)c3)[C@H](O)C[C@H]2Cl)s1 [5-(3-((1R,2S,3R,5R)-5-chloro-2-((3,5-dichlorophenylamino)methyl)-3-hydroxycyclopentyl)propyl)thiophene-2-carboxylic acid]
maximum intraocular pressure (IOP) decrease from baseline (normotensive dogs [2]; 0.001%, at 6 h): 2.6 mmHg
inhibition in vivo at 0.001 % (normotensive dogs [2]; Canis lupus familiaris, 0.001%, at 6 h, read-out: maximum intraocular pressure (IOP) decrease from baseline): 18%

maximum ocular surface hyperemia (OSH) score (normotensive dogs [1]; 0.001%, once daily for 5 days, at 28 h): 1.8
SMILES: CCN(CC)CCOC(=O)c1ccc(CCC[C@@H]2[C@@H](CCc3cc(Cl)cc(Cl)c3)[C@H](O)C[C@H]2Cl)s1 [2-(Diethylamino)ethyl 5-(3-((1R,2R,3R,5R)-5-chloro-2-(3,5-dichlorophenethyl)-3-hydroxycyclopentyl)propyl)thiophene-2-carboxylate]
maximum intraocular pressure (IOP) decrease from baseline (normotensive dogs [2]; 0.001%, at 78 h): 6.9 mmHg
inhibition in vivo at 0.001 % (normotensive dogs [2]; Canis lupus familiaris, 0.001%, at 78 h, read-out: maximum intraocular pressure (IOP) decrease from baseline): 47%

maximum ocular surface hyperemia (OSH) score (normotensive dogs [1]; 0.005%, once daily for 5 days, at 30 h): 1.4
SMILES: O=C(O)c1ccc(CCC[C@@H]2[C@@H](C[S+]([O-])c3cc(Cl)cc(Cl)c3)[C@H](O)C[C@H]2Cl)s1 (stereo partly drawn) [5-(3-((1R,2R,3R,5R)-5-chloro-2-((3,5-dichlorophenylsulfinyl)methyl)-3-hydroxycyclopentyl)propyl)thiophene-2-carboxylic acid]
maximum intraocular pressure (IOP) decrease from baseline (normotensive dogs [2]; 0.005%, at 4 h): 3.1 mmHg
inhibition in vivo at 0.005 % (normotensive dogs [2]; Canis lupus familiaris, 0.005%, at 4 h, read-out: maximum intraocular pressure (IOP) decrease from baseline): 21%

maximum ocular surface hyperemia (OSH) score (normotensive dogs [1]; 0.0001%, once daily for 5 days, at 74 h): 0.8
maximum ocular surface hyperemia (OSH) score (normotensive dogs [1]; 0.0005%, once daily for 5 days, at 50 h): 1.75
maximum ocular surface hyperemia (OSH) score (normotensive dogs [1]; [8]): 1.8
maximum ocular surface hyperemia (OSH) score (normotensive dogs [1]; 0.01%, once daily for 5 days, at 26 h): 2.5
SMILES: O=C(O)c1ccc(CCC[C@@H]2[C@@H](CCc3cc(Cl)cc(Cl)c3)[C@H](O)C[C@H]2Cl)s1 [5-(3-((1R,2R,3R,5R)-5-chloro-2-(3,5-dichlorophenethyl)-3-hydroxycyclopentyl)propyl)thiophene-2-carboxylic acid]

maximum ocular surface hyperemia (OSH) score (normotensive dogs [1]; 0.0005%, once daily for 5 days, at 98 h): 1.25
SMILES: CCN(CC)CCOC(=O)c1ccc(CCC[C@@H]2[C@@H](CCc3cc(Cl)cc(Cl)c3)[C@H](O)C[C@H]2Cl)s1 [2-(Diethylamino)ethyl 5-(3-((1R,2R,3R,5R)-5-chloro-2-(3,5-dichlorophenethyl)-3-hydroxycyclopentyl)propyl)thiophene-2-carboxylate hydrochloride]
maximum intraocular pressure (IOP) decrease from baseline (normotensive dogs [2]; 0.0005%, at 28 h): 5.3 mmHg
inhibition in vivo at 0.0005 % (normotensive dogs [2]; Canis lupus familiaris, 0.0005%, at 28 h, read-out: maximum intraocular pressure (IOP) decrease from baseline): 33%

maximum ocular surface hyperemia (OSH) score (normotensive dogs [1]; [8]): 0.8
SMILES: O=C(O)c1ccc(CCC[C@@H]2[C@@H](CCc3cc(Cl)cc(CO)c3)[C@H](O)C[C@H]2Cl)s1 [11c, 5-(3-((1R,2R,3R,5R)-5-chloro-2-(3-chloro-5-(hydroxymethyl)phenethyl)-3-hydroxycyclopentyl)propyl)thiophene-2-carboxylic acid]

pKi (EP4 [3]): < 6.00
SMILES: O=C(O)c1ccc(CCC[C@@H]2[C@@H](C[S+]([O-])c3cc(Cl)cc(Cl)c3)[C@H](O)C[C@H]2Cl)s1 (some centres unmarked) [drawing 8]

maximum ocular surface hyperemia (OSH) score (normotensive dogs [1]; 0.01%, once daily for 5 days, at 52 h): 1.7
SMILES: O=C(O)c1ccc(CCC[C@@H]2[C@@H](CSc3cc(Cl)cc(Cl)c3)[C@H](O)C[C@H]2Cl)s1 [5-(3-((1R,2R,3R,5R)-5-chloro-2-((3,5-dichlorophenylthio)methyl)-3-hydroxycyclopentyl)propyl)-thiophene-2-carboxylic acid]
maximum intraocular pressure (IOP) decrease from baseline (normotensive dogs [2]; 0.01%, at 6 h): 6.3 mmHg
inhibition in vivo at 0.01 % (normotensive dogs [2]; Canis lupus familiaris, 0.01%, at 6 h, read-out: maximum intraocular pressure (IOP) decrease from baseline): 35%

maximum ocular surface hyperemia (OSH) score (normotensive dogs [1]; 0.001%, once daily for 5 days, at 26 h): 0.9
SMILES: CC(C)OC(=O)c1ccc(CCC[C@@H]2[C@@H](CCc3cc(Cl)cc(CO)c3)[C@H](O)C[C@H]2Cl)s1 [Isopropyl 5-(3-((1R,2R,3R,5R)-5-chloro-2-(3-chloro-5-(hydroxymethyl)phenethyl)-3-hydroxycyclopentyl)propyl)thiophene-2-carboxylate]

pKi (EP4 [3]): 6.17
pEC50 (EP2 [4]): 7.70
pEC50 (hEP3A): 5.15
pEC50 (EP2 [5]): 10.05
pEC50 (EP4 [6]): 5.25
pKi (EP2 [7]): 8.82
SMILES: O=C(O)c1ccc(CCC[C@@H]2[C@@H](CNc3cc(Cl)cc(Cl)c3)[C@H](O)C[C@H]2Cl)s1 [drawing 6]

maximum ocular surface hyperemia (OSH) score (normotensive dogs [1]; 0.001%, once daily for 4 days, at 74 h): 1.9
SMILES: O=C(O)c1ccc(CCC[C@@H]2[C@@H](CCc3cc(Cl)nc(Cl)c3)[C@H](O)C[C@H]2Cl)s1 [11b, 5-(3-((1R,2R,3R,5R)-5-chloro-2-(2-(2,6-dichloropyridin-4-yl)ethyl)-3-hydroxycyclopentyl)propyl)-thiophene-2-carboxylic acid]
